# Results taken from PMC11356571, “The Comparative Metabolism of a Novel Hepatocellular Carcinoma Therapeutic Agent, 2,3-Diamino-N-(4-(benzo[d]thiazol-2-yl)phenyl)propanamide, in Human and Animal Hepatocytes” (Metabolites, 2024).
# Tests used:
# CYP2B6 = molecular target: T1, CYP2B6 (Homo sapiens, UniProt P20813); assay: Incubation with human cDNA-expressed CYP2B6; assay type: in vitro ADME; conditions: CYP2B6, 30 min at 37 °C with NADPH; ETN101 10 μM or M1 1 μM
# T1 construct: purchased Cypex Ltd. (Dundee, UK)
# T1 sequence (P20813 1-491): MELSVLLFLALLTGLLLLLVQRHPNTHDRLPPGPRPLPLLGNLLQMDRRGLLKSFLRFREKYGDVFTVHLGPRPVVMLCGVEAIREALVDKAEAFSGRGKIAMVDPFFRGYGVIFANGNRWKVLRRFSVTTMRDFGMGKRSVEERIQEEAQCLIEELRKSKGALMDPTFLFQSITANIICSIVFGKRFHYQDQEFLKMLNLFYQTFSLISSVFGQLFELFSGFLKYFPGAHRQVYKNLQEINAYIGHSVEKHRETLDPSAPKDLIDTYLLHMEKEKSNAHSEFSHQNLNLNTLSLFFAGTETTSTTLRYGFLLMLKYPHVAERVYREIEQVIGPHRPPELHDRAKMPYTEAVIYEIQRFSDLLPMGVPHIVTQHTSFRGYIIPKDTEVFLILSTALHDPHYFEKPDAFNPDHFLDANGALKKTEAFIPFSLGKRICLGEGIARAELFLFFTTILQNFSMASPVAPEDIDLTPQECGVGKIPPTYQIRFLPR
# Experimental: ETN101 or M1 was incubated with nine human cDNA-expressed CYP enzymes (1A2, 2A6, 2B6, 2C8, 2C9, 2C19, 2D6, 2E1, and 3A4) to identify the CYPs involved in the metabolism of ETN101. Based on the preliminary study, the incubation conditions were determined as follows: Briefly, reaction mixtures of 50 μL containing ETN101 (final concentration: 10 μM) or M1 (final concentration: 1 μM), and CYPs (final amount: 5 pmol for CYP1A2, 2A6, 2C8, 2C9, 2C19, 2D6, and 3A4; 10 pmol for CYP2B6 and 2E1) were prepared in 0.1 M potassium phosphate buffer. The reaction was initiated by adding 50 μL of NADPH- regenerating system; the mixtures were incubated for 0 min or 30 min at 37 °C in triplicate. Reactions were terminated by the addition of 100 μL of ice-cold acetonitrile containing the IS (camptothecin, 200 ng/mL). Samples were centrifuged at 13,000 rpm for 5 min at 4 °C. An aliquot of 2 μL supernatant was injected in LC–MS/MS system.
# For enzyme characterization, an Agilent 6460 triple quadrupole mass spectrometer coupled with a 1260 HPLC system (Agilent Technologies, Santa Clara, CA, USA) and a Kinetex Halo® C18 column (2.7 μm, 2.1 × 50 mm, Advanced Material Technology, Wilmington, DE, USA) were used for chromatographic separation. […] ETN101, M1, and M2 were detected via MRM using ESI in the positive mode. […]
# dog hepatocytes = assay: Metabolite characterization in dog hepatocytes; assay type: in vitro ADME; conditions: dog hepatocyte 1 h incubates of ETN101; ND:<1.2E+05 peak area
# Experimental: We mixed 60 μL aliquots of 40 μM ETN101 in incubation medium and an equal volume of human, mouse, rat, dog, or monkey hepatocyte suspension in 96-well plates and incubated for 0 or 1 h in a CO2 incubator at 37 °C. The reactions were quenched by adding 120 µL of ice-cold acetonitrile to each well, and the cell suspension was sonicated for 5 min at 4 °C. Subsequently, centrifugation was carried out at 15,000× g for 10 min at 4 °C. Next, the supernatants were evaporated to dryness using a vacuum concentrator, and residues were re-dissolved in 70 μL of 30% acetonitrile. Each sample (5 μL aliquots) was analyzed using LC–HRMS system.
# For metabolite characterization, a Vanquish HPLC system (Thermo Fisher Scientific, San José, CA, USA) coupled with a Q-Exactive Orbitrap mass spectrometer (Thermo Fisher Scientific Inc., Waltham, MA, USA) was used at Core Research Support Center for Natural Products and Medical Materials at Yeungnam University. […] The eluent from the column was directly injected into the mass spectrometer using a heated electrospray ionization (HESI) source in positive ionization mode. […] The spray voltage was 3.0 kV and the capillary temperature was 320 °C. Full scan MS^1 with a data-dependent MS^2 acquisition mode was applied to obtain MS^1 scan data ranging from m/z 80 to 900, at a resolution of 70,000, whereas data-dependent MS^2 spectra were acquired for the five most abundant peaks per cycle at a resolution of 35,000. The parallel reaction monitoring (PRM) mode was used to obtain the MS^2 spectra of putative metabolites detected at low peak intensities in the data-dependent MS^2 acquisition mode. Data were collected and interpreted using Thermo Scientific Xcalibur™ Software (Thermo Fisher Scientific).
SMILES,Percentage remaining (CYP2B6),Relative peak area (%) (dog hepatocytes)
"NCC(N)C(=O)Nc1ccc(-c2nc3ccccc3s2)cc1 (stereo not shown) [ETN101, 2,3-diamino-N-(4-(benzo[d]thiazol-2-yl)phenyl)propanamide]",92.8%,39.5%
"Nc1ccc(-c2nc3ccccc3s2)cc1 [M1, 2-(4-aminophenyl)benzothiazole]",109.8%,55.9%
